Results on 20 compounds are retold here after ChEMBL document CHEMBL1154043, “Synthesis and structure-activity relationship of a novel series of heterocyclic sulfonamide gamma-secretase inhibitors” (Bioorg Med Chem, 2009).

The target of test [1] is Gamma-secretase (Homo sapiens) (UniProt Q96BI3+Q9NZ42+Q8WW43+P49768+Q92542+P49810). The experiment in a line: (§1) Displacement of [3H](S)-5-chloro-N-(3-ethyl-1-hydroxypentan-2-yl)thiophene-2-sulfonamide from gamma secretase in human SH-SY5Y cells after 1 hr. Format: cell-based.
For the next test, the target named is Gamma-secretase. The description is as §1. Format: cell-based.
The nature of test [2]: Inhibition of gamma-secretase assessed as effect on APP level after 24 hrs by double sandwich ELISA.
Test [3] in a line: Inhibition of gamma-secretase-mediated mouse notch cleavage expressed in CHOK1 cells assessed as secreted alkaline phosphatase level after 48 hrs by chemiluminescence assay. The following applies: CHO-K1, 48 h. Format: cell-based.
Test [4] is described as follows: Inhibition of gamma-secretase-mediated cleavage of human APP expressed in CHO cells assessed as reduction in amyloid beta40 production after 24 hrs by double sandwich ELISA. Format: cell-based.
Test [5] is described as follows: Selectivity ratio of EC50 for gamma-secretase-mediated mouse notch cleavage to EC50 for gamma-secretase-mediated amyloid beta40 production.
The nature of test [6]: Inhibition of gamma-secretase assessed as increase in beta-C-terminal fragment level after 24 hrs by double sandwich ELISA.
A further test concerns CHO. The experiment in a line: (§2) Inhibition of gamma-secretase-mediated cleavage of human APP expressed in CHO cells assessed as reduction in amyloid beta42 production after 24 hrs by double sandwich ELISA. Format: cell-based.
Test [7] is described as follows: as §2. Format: cell-based.
Test [8] in a line: Selectivity for gamma-secretase-mediated APP cleavage over gamma-secretase-mediated notch processing.

Active and inactive are the calls of the source. No cut-off for these calls is given here.

Turning to `CC(C)[C@H](O)C(=O)N[C@@H](C)C(=O)N[C@@H]1C(=O)N(C)CCc2ccccc21`, in test [1], the result was Active.

Compound `CCC(CC)[C@H](NS(=O)(=O)c1ccc(Cl)s1)c1ccnn1Cc1ccc(O)cc1` had an IC50 at Gamma-secretase of 154 nM. Further, the outcome (in [2]; in test [6]; in the test with CHO) was Active. Besides, the EC50 in test [3] was 1800 nM; in test [4] it was 92 nM. In test [5], the Selectivity ratio came to 20.

In the case of `CCC(CC)[C@H](NS(=O)(=O)c1ccc(Cl)s1)c1ccnn1-c1ccc(OC)cc1`, the outcome (in [2]; in test [6]; in the test on CHO) was Active. The figures for the EC50 in [3] and in test [4] were 3970 nM and 990 nM, respectively. Also, the Selectivity ratio in test [5] came out at 4.

Regarding `Cc1ccc(-n2nccc2[C@@H](NS(=O)(=O)c2ccc(Cl)s2)C(C)C)cc1`, the result (in test [2]; in [6]; in the test with CHO) was Active. For the same compound, the values for the EC50 in test [3] and in [4] were 12600 nM and 320 nM, respectively. Further, in test [5], the Selectivity ratio is 39.

Regarding `CCC(CC)[C@H](NS(=O)(=O)c1ccc(Cl)s1)c1ccnn1Cc1ccc(OC)cc1`, the outcome (in [2]; in test [6]; in the test with CHO) was Active. Moreover, the figures for the EC50 in test [3] and in test [4] were 2650 nM and 110 nM, respectively. Also, the Selectivity ratio in test [5] was 24.

As to `CC(C)[C@H](NS(=O)(=O)c1ccc(Cl)s1)c1ccnn1-c1ccc(O)cc1`, the result (in [2]; in test [6]; in the test on CHO) was Active. For the same compound, the EC50 was determined as 3260 nM in test [3] and 470 nM in test [4]. In addition, the Selectivity ratio in [5] stood at 6.9.

Consider `C[C@H](NC(=O)Cc1cc(F)cc(F)c1)C(=O)N[C@H](C(=O)OC(C)(C)C)c1ccccc1`, for which the result in test [1] was Active.

With `C[C@H](NC(=O)[C@@H](O)c1cc(F)cc(F)c1)C(=O)N[C@@H]1C(=O)N(C)c2ccccc2-c2ccccc21`, the result in [1] was Active.

On to `COc1ccc(-n2nccc2[C@@H](NS(=O)(=O)c2ccc(Cl)s2)C(C)C)cc1`, for which the outcome (in [2]; in test [6]; in the test on CHO) was Active. The EC50 in test [3] stood at 6120 nM; in test [4] it was 550 nM. Further, in [5], the Selectivity ratio came out at 11.

With `CCC(CC)[C@@H](CO)NS(=O)(=O)c1ccc(Cl)s1` [GSI-136], the outcome in [1] was Active. Further, the EC50 in test [4] and in test [7] was 29 nM each time.

Take `C[C@H](c1ccc(F)cc1CCCC(=O)O)N(c1cc(F)ccc1F)S(=O)(=O)c1ccc(Cl)cc1`: in [8], the Selectivity ratio was found to be 15.

As to `CCC(CC)C(NS(=O)(=O)c1ccc(Cl)s1)c1ncnn1Cc1ccc(F)cc1` (stereo not given), the outcome (in [2]; in test [6]; in the test on CHO) was Active. Moreover, the EC50 in [4] is 480 nM.

Turning to `Cc1cccc(-n2nccc2C(NS(=O)(=O)c2ccc(Cl)s2)C(C)C)c1` (stereo not given), the result (in test [2]; in test [6]; in the test with CHO) was Active. Also, the EC50 in [4] was 2530 nM.

Turning to `CCC(CC)C(NS(=O)(=O)c1ccc(Br)cc1)c1ccnn1Cc1ccc(OC)cc1` (stereo not given), the result (in test [2]; in test [6]; in the test on CHO) was Active. Moreover, in test [4], the EC50 came to 2270 nM.

Regarding `CCC(CC)C(c1ccnn1-c1ccccc1)N(C)S(=O)(=O)c1ccc(Cl)s1` (stereo not given), the outcome (in [2]; in test [6]; in the test on CHO) was Active. Moreover, the EC50 in [4] amounted to 70200 nM.

With `CCC(CC)C(NC(=O)c1ccc(Cl)cc1)c1ccnn1Cc1ccc(OC)cc1` (stereo not given), the result (in test [2]; in test [6]; in the test with CHO) was Active. In addition, in [4], the EC50 amounted to 42400 nM.

Take `CC(C)C(NS(=O)(=O)c1ccc(Cl)s1)c1ccnn1-c1ccc(F)cc1` (stereo not given): the outcome (in [2]; in [6]; in the test on CHO) was Active. For the same compound, the EC50 in [4] worked out at 2760 nM.

Consider `CCC(CC)C(c1ccnn1-c1ccccc1)N(C)S(=O)(=O)c1ccc(Br)s1` (stereo not given), for which the outcome (in [2]; in test [6]; with CHO) was Active. The EC50 in test [4] stood at 65100 nM.

On to `CCC(CC)C(NS(=O)(=O)c1ccc(C#N)cc1)c1ccnn1-c1ccccc1` (stereo not given), for which the result (in test [2]; in test [6]; in the test with CHO) was Active. Moreover, the EC50 in test [4] is 85200 nM.

As for `CC(C)C(NS(=O)(=O)c1ccc(Cl)s1)c1ncnn1Cc1ccccc1` (stereo not given), the result (in [2]; in test [6]; in the test with CHO) was Active. In addition, the EC50 in test [4] is 3360 nM.
